Test results as given in US20230190777A1, “MAMMALIAN MILK OLIGOSACCHARIDES PREVENT VIRAL INFECTION OF HUMAN EPITHELIUM” (The Regents of the University of California, priority 2020, published 2023).
Where two headings read alike, the source gives them in different places.

Experiments:
Tulane virus = Tulane virus infection of MK2-LLC cells after HMO pre-incubation (imaging of adherent cells); assay type: cell-based, monkey; conditions: HMO 2 mg/ml pre-incubated 16 hours, MOI 0.001, compared to cells in the absence of an HMO (FIG. 1)
[1] = tested on: human coronavirus (HCoV-229E); assay type: cell-based; conditions: A549 cells, MOI 0.01, three days post infection (FIG. 3)
[2] = tested on: human coronavirus (HCoV-229E); experiment: HCoV-229E infection of A549 cells after HMO pre-incubation (imaging of adherent cells); assay type: cell-based; conditions: HMO 2 mg/ml pre-incubated 16 hours, MOI 0.01, up to three days post-infection (FIG. 2)
Description: Monkey kidney epithelial (MK2-LLC) cells or human alveolar epithelial (A549) cells were seeded in 12-well plates at 1E5 cells per well.
24-hours post incubation, cells were washed with serum-free media and incubated with the particular HMO at 2 mg/ml final concentration.
16-hours post HMO incubation, the particular virus (for MK2-LLC cells this was Tulane virus, at a multiplicity of infection (MOI) of 0.001; for A549 cells this was human coronavirus (HCoV-229E), at an MOI of 0.01) was added and infection was allowed to proceed.
Images of adherent (live) cells were recorded two-days post infection after aspirating and washing cells with PBS. All wells were washed on Day 3 prior to imaging.
It was hypothesized that HMOs enhance cellular adhesion, cell structural integrity and modulate tight junction proteins as a generalized function regardless of the organ from which the epithelial cells are derived, and this function in turn alters the response to pathogenic challenges. […] As proof-of-concept, human alveolar epithelial (A549) cells were incubated in the presence of physiological levels of an HMO (2′-FL or 3′-SL) for 16 hours and infected the cells with a human coronavirus (HCoV-229E).

[3] = tested on: human coronavirus (HCoV-229E); assay type: cell-based; conditions: HMO 2 mg/ml or 5 mg/ml for 16 hours before HCoV-229E (MOI 0.01), 48 hours of viral infection (FIG. 4)
[4] = tested on: Type I (IFN-α1, IFN-β1) and Type III interferons (IFN-λ1, IFN-λ2, and IFN-λ3); experiment: Host-cell interferon response during HCoV-229E infection of A549 cells (real-time PCR); assay type: cell-based, human; conditions: HMO 2 mg/ml pre-incubated 16 hours, MOI 0.01, 24 hours post infection (FIG. 6)
[5] = HMO 2 mg/ml added simultaneously with HCoV-229E ('During')
[6] = HMO 2 mg/ml added two hours post viral adsorption ('After')

Compound | cellular adherence and cell viability in the presence of Tulane virus (Tulane virus) | loss of adherent cells, virus-mediated loss of cell viability and cytopathogenic effects [1, 5] | loss of adherent cells, virus-mediated loss of cell viability and cytopathogenic effects [1, 6] | A549 epithelial cell morphology after HCoV-229E infection [2] | A549 cell viability (live cell fluorescence, Calcein-AM) [3] | Type I and Type III interferon response (fold-induction) during HCoV-229E infection [4]
Lacto-N-fucopentaose I [LNFP I] | increased cellular adherence and cell viability | – | – | – | – | –
CC(=O)N[C@H]1[C@H]([C@H](O)[C@H](O)CO)O[C@@](O[C@H]2[C@@H](O)[C@@H](CO)O[C@@H](O[C@H]3[C@H](O)[C@@H](O)C(O)O[C@@H]3CO)[C@@H]2O)(C(=O)O)C[C@@H]1O (stereo partly shown) [3′-SL, 3′-sialyllactose] | increased cellular adherence and cell viability | reduced the loss of adherent cells, the virus-mediated loss of cell viability and the cytopathogenic effects | reduced the loss of adherent cells, the virus-mediated loss of cell viability and the cytopathogenic effects | little or no change in A549 epithelial cell morphology | retain viability | dramatically attenuated
2′-Fucosyllactose [2′-FL] | increased cellular adherence and cell viability | reduced the loss of adherent cells, the virus-mediated loss of cell viability and the cytopathogenic effects | reduced the loss of adherent cells, the virus-mediated loss of cell viability and the cytopathogenic effects | little or no change in A549 epithelial cell morphology | retain viability | dramatically attenuated
